In patent US12065671B2, “Method for reproducible differentiation of clinical-grade retinal pigment epithelium cells” (The United States of America, as represented by the …, priority 2015, dated 2024):
“Also recorded” adds a separate entry of the source.

How the values were obtained:
Format in all cases: cell-based, human
iPSC-RPE cells [1] = assay: Immunostaining of iPSC-RPE monolayer (beta catenin, pERM, ZO1, RPE65, p27); conditions: for p27 staining: nucleus, higher expression suggests cell cycle exit; for Beta catenin staining: treated vs untreated iPSC-RPE cells (untreated: cytoplasm); for RPE65 staining: treated vs untreated iPSC-RPE cells (untreated: low); for RPE maturation: treatment of RPE cells in RPE-MM
Protocol: (§1) For analysis of the mature RPE cells produced from treatment with PGE2, immunostaining of the RPE monolayer was performed to confirm the hexagonal architecture (FIGS. 4A-4C) of tight junctions by ZO1 staining as well as transmission electron microscopy of the iPSC-RPE cells (FIG. 4D). […] In addition, treatment with IWP2+endo-IWR1 or IWP2 results also results in decreased beta catenin (FIG. 5A) and increased RPE65 (FIG. 5C).

RPE population = assay: Inclusion of MEK inhibitor in RDM and RPE-MM during RPE differentiation; conditions: 1 μM in RDM and in RPE-MM (approximately Days 42 through 50)
Protocol: With regard to the methods described in Examples 2 and 3, the inclusion of PD0325901 at a concentration of 1 μM in media for certain windows of time beginning on Day 2 post iPSC plating through the end of the differentiation process, including post-MACS culture, may improve both purity of the RPE population (meaning a decrease in contaminating cells) as well as maturity of the resulting RPE population.

iPSC-derived RPE cells [2] = assay: Flow cytometry purity assay for RPE-specific markers
Protocol: The flow cytometry purity assay was performed to determine the percentage of RPE cells obtained by a sorting method of the present disclosure. An aliquot of the cell suspension collected from the MACS assay (2×10^6 cells in a 5 mL FACS tube per sample) was centrifuged at 400×g for 3 min. The cell pellet was resuspended in 1 mL of a stain (e.g., Live-Dead Red stain) and incubated in the dark at room temperature for 15 min. After incubation, 2 mL of wash buffer was added and the cells were centrifuged at 400×g for 3 min to remove any unbound stain. The cell pellet was resuspended in fixation buffer and incubated in the dark at room temperature for 15 min. After incubation, 2 mL of wash buffer were added and the cells were centrifuged at 400×g for 3 min and the supernatant was decanted. The cell pellet was resuspended in 2 mL of wash buffer to make a 1×10^6 cells/mL suspension and 200 μL of the cell suspension was transferred to a FACS tube. To each tube, 2 mL of perm buffer was added and cells were centrifuged at 400×g for 3 min. Primary antibodies for the RPE-specific markers were diluted in perm buffer and 100 μL diluted antibody solution was added to each tube. After incubation overnight at 4° C. in the dark, the cells were washed in 2 mL Perm Buffer two times. Secondary antibody solution was added to each of the tubes and cells were incubated at room temperature in the dark for 1-2 hours. After incubation, the cells were washed twice with Perm Buffer, centrifuged (400×g for 3 min) and resuspended in 100 μL wash buffer for flow cytometry analysis. […]
Functionality of the mature RPE cells treated with IWP2 or endo-IWR1 was also characterized. […] To determine the maturity and functionality of the 50 μM versus 100 μM PGE2 treated cultures, the barrier function in terms of transepithelial electrical resistance (TER) was measured (FIG. 7F) to compare the resistance of substances through the paracellular space as explained in Example 9. […]

iPSC-RPE cells [3] = assay: Transmission electron microscopy of iPSC-RPE cells; conditions: treated vs untreated iPSC-RPE cells
Protocol: as §1

iPSC-derived RPE cells [4] = assay: Barrier function: transepithelial electrical potential (TEP) and resistance (TER) of RPE monolayer
Protocol: To measure the barrier function of the RPE cells generated by the present methods, transepithelial electrical potential (TEP) was measured the ion gradient across the monolayer generated by energy-driven ion pumps that regulate passage across the cells, and transepithelial electrical resistance (TER) measures resistance of substances through the paracellular space mainly through the fine structure of the tight junction structure (FIG. 7A).
Functionality of the mature RPE cells treated with IWP2 or endo-IWR1 was also characterized. […] To determine the maturity and functionality of the 50 μM versus 100 μM PGE2 treated cultures, the barrier function in terms of transepithelial electrical resistance (TER) was measured (FIG. 7F) to compare the resistance of substances through the paracellular space as explained in Example 9. To determine the percentage of pure RPE cells obtained after treatment of the iPSC-derived RPE cultures with 50 μM or 100 μM in the RPE-MM+PGE2 medium, flow cytometry purity assay was performed for RPE-specific markers (FIG. 7G) as described in Example 6.

[5] = day 75, 100 μM vs 50 μM PGE2, day 54 to day 75

| Structure (SMILES) | p27 staining (iPSC-RPE cells [1]) | Beta catenin staining (iPSC-RPE cells [1]) | RPE65 staining (iPSC-RPE cells [1]) | RPE maturation (iPSC-RPE cells [1]) | Purity and maturity of the RPE population (RPE population) | Expression of Best 1 marker (late maturity RPE marker) (iPSC-derived RPE cells [2]; [5]) | Expression of Pmel17, Tryp1 and Cralbp (RPE-specific markers) (iPSC-derived RPE cells [2]; [5]) | Purity and maturity of the RPE population (iPSC-derived RPE cells [2]; higher concentration (100 μM vs 50 μM) in RPE-MM+PGE2 medium, TER and flow cytometry) | Apical processes in transmission electron micrographs (iPSC-RPE cells [3]) | ZO1 staining (iPSC-RPE cells [1]; both untreated and treated cells) | pERM (Ezrin) staining (iPSC-RPE cells [1]; treated vs untreated iPSC-RPE cells (untreated: low in cytoplasm)) | Functional response (TER) (iPSC-derived RPE cells [4]; 100 μM vs 50 μM PGE2 in RPE-MM+PGE2 medium, Day 54 to Day 75) | TEP and TER measurements (functionality) (iPSC-derived RPE cells [4]; treated vs untreated RPE cells) |
| --- | --- | --- | --- | --- | --- | --- | --- | --- | --- | --- | --- | --- | --- |
| Cc1ccc2nc(NC(=O)CSc3nc4c(c(=O)n3-c3ccccc3)SCC4)sc2c1 [IWP2, N-(6-Methyl-2-benzothiazolyl)-2-[(3,4,6,7-tetrahydro-4-oxo-3-phenylthieno[3,2-d]pyrimidin-2-yl)thio]-acetamide] | higher p27 expression in the nucleus | decreased; also recorded: on cell membrane | increased; also recorded: high in the cytoplasm | produces mature RPE cells |  |  |  |  |  |  |  |  |  |
| [Cl-].[Li+] [LiCl] | weak p27 expression in the nucleus | in the nucleus | no staining |  |  |  |  |  |  |  |  |  |  |
| O=C(NOC[C@H](O)CO)c1ccc(F)c(F)c1Nc1ccc(I)cc1F [PD 0325901, N-[(2R)-2,3-Dihydroxypropoxy]-3,4-difluoro-2-[(2-fluoro-4-iodophenyl)amino]-benzamide] |  |  |  |  | improve both purity and maturity |  |  |  |  |  |  |  |  |
| CCCCC[C@H](O)/C=C/[C@H]1[C@H](O)CC(=O)[C@@H]1C/C=C\CCCC(=O)O [PGE2, prostaglandin E2] |  | decreased; also recorded: at the membrane | increased; also recorded: high in the cytoplasm | produces mature RPE cells |  | much higher | comparable expression | promotes both the purity and maturity | more extensive apical processes | at the tight junctions in the plasma membrane | high in the cytoplasm | progressive increase | increased functionality |
